Reference: patent publication US20110251238A1, “PPAR AGONIST COMPOSITIONS AND METHODS OF USE” (BIOPHARMED, priority 2008, published 2011)
Values after ≈ are worked out from the molar mass of the structure shown. Counter-ions that a name gives are not always drawn. Like-named read-outs stand apart in the source and are kept apart here.

How the values were obtained:
[1] = tested on: KB3 (epitheloid lung cancer) cell lines; assay: Cell growth inhibition (cytotoxicity), MTS assay, KB3 cell line; type: cell-based; conditions: for cytotoxic activity in words: structure-cytotoxicity discussion
Method: Cell growth inhibition was determined by the MTS assay; the number of viable cells were proportional to the extent of formazan production in the presence or absence of drugs. […]

[2] = tested on: bloodstream forms of T. brucei and T. congolense; assay: Trypanocidal activity in vitro, Alamar Blue assay; type: cell-based, Trypanosoma brucei and T. congolense
Source text: Trypanosoma brucei and T. congolense are the causative agents of sleeping sickness in humans and nagana in cattle, respectively. The protozoan parasites live extracellularlyin blood and tissue fluids of mammals and are transmitted by the bite of infected tsetse flies (Glossina spp.). Here the trypanocidal activity against bloodstream forms of T. brucei and T. congolense of bis-8-hydroxy quinoline N-substituted benzylamines derivatives was investigated in vitro, according to methods described in. Steverding et al. (2006) Kinetoplastid Biology and Disease, 5(3): 1-5; Hongmance et al., (2007) Antimicrob. Agents Chemother. 51:1105-1106; and Zhao et al., (2005) Bio-org. Med. Chem.; 13: 3921-3926. Cells were seeded into 96-well tissue culture plates in 200 μl medium containing various concentrations of analogues dissolved in H2O. The controls contained the respective solvent alone. […] After 24 h (trypanosomes) or 43 h (HL-60) incubation, 20 μl of the colorimetric viability indicator Alamar Blue® was added to each well. The cells were incubated for a further 24 h (trypanosomes) or 5 h (HL-60) so that the total incubation time was 48 h. Then, the plates were read on a Dynatech MR5000ELISA reader (Denkendorf, Germany),using a test wavelength of 550 nm and a reference wave length of 630 nm. Each test was set up in duplicate and repeated three times. For comparison, the general cytotoxicity of the compounds was assayed with human myeloid leukaemia HL-60 cells. The anti-trypanosomal activities and the general cytotoxicities of the new analogues were evaluated using the Alamar Blue® assay.

[3] = Table 3A, MTS assay, triplicate, read-out: KB3 IC50
[4] = KB3, Table 3B, MTS assay, triplicate, read-out: KB3 IC50
[5] = KB3, Table 3A, MTS assay, triplicate, read-out: KB3 IC50
[6] = 50% growth inhibition, 48 h total incubation, read-out: GI50
[7] = lowest concentration at which all cells were killed, 48 h total incubation, read-out: MIC

Compound	IC50 [1, 4] [nM]	GI50 [2, 6] [nM]	MIC [2, 7] [µM]	other results
5,5′-(2-(pyridin-2-yl)ethylazanediyl)bis(methylene)diquinolin-8-ol) [BPM19,193]	–	–	–	IC50 [1, 3]: > 10000 nM
5,5′-(2-(pyrrolidin-1-yl)ethylazanediyl)bis(methylene)diquinolin-8-ol) [BPM19,214]	–	–	–	IC50 [1, 3]: 1000 nM
Cc1ccc(C(=O)NCc2ccc(O)c3ncccc23)cc1 [BPM18,203, N-((8-hydroxyquinolin-5-yl)methyl)-4-methylbenzamide]	1000	–	–	CC50 ([1]; KB3 cell line): 1000 nM; cytotoxic activity in words ([1]; KB3 cell line): inactive or only weakly active
Oc1ccc(CNCc2ccccc2)c2cccnc12 [BPM18,726, 5-((benzylamino)methyl)quinolin-8-ol dihydrochloride]	> 1000	–	–	–
Oc1ccc(CNCc2cccc(C(F)(F)F)c2)c2cccnc12 [BPM19,114, 5-((3-(trifluoromethyl)benzylamino)methyl)quinolin-8-ol]	200	–	–	cytotoxic activity in words ([1]; KB3 cell line): significant cytotoxic activity
Cc1ccc(CNCc2ccc(O)c3ncccc23)cc1 [BPM19,167, 5-((4-methylbenzylamino)methyl)quinolin-8-ol dihydrochloride]	–	–	–	GI50 ([2]; 48 h): 14800 ± 2590 nM; MIC ([2]; 48 h): 100 µM
Oc1ccc(CNCc2ccc(C(F)(F)F)cc2)c2cccnc12 [BPM19,191, 5-((4-(trifluoromethyl)benzylamino)methyl)quinolin-8-ol]	10000	–	–	–
Oc1ccc(CN(Cc2ccc(O)c3ncccc23)CC2CCCO2)c2cccnc12 (stereo not shown) [BPM19,197, 5,5′-((tetrahydrofuran-2-yl)methylazanediyl)bis(methylene)diquinolin-8-ol]	–	2990 ± 50	10 (≈ 4.15 µg/mL)	IC50 [1, 5]: 10000 nM
Oc1ccc(CN(Cc2ccc(OC(F)(F)F)cc2)Cc2ccc(O)c3ncccc23)c2cccnc12 [BPM19,205, 5,5′-(4-(trifluoromethoxy)benzylazanediyl)bis(methylene)diquinolin-8-ol]	–	320 ± 20	1 (≈ 0.505 µg/mL)	IC50 [1, 5]: 100 to 1000 nM
Cn1cccc1CN(Cc1ccc(O)c2ncccc12)Cc1ccc(O)c2ncccc12 [BPM19,216, 5,5′-((1-methyl-1H-pyrrol-2-yl)methylazanediyl)bis(methylene)diquinolin-8-ol]	–	320 ± 10	1 (≈ 0.425 µg/mL)	–
Oc1ccc(CN(Cc2ccccc2)Cc2ccccc2)c2cccnc12 [BPM19,230, 5-((dibenzylamino)methyl)quinolin-8-ol]	1000	–	–	–
Oc1ccc(N(Cc2cccc3ccccc23)c2ccc(O)c3ncccc23)c2cccnc12 [BPM19,702, 5,5′-(naphthalen-1-ylmethylazanediyl)diquinolin-8-ol]	–	290	1 (≈ 0.444 µg/mL)	–
Cc1ccc2c(CN(Cc3ccc(C(F)(F)F)cc3)Cc3ccc(O)c4nc(C)ccc34)ccc(O)c2n1 [BPM19,876, 5,5′-(4-trifluoromethylbenzylazanediyl)bis(methylene)bis(2-methylquinolin-8-ol)]	–	3710 ± 240	100 (≈ 51.8 µg/mL)	–
CC(=O)O[C@@]12CO[C@@H]1C[C@H](O)[C@@]1(C)C(=O)[C@H](O)C3=C(C)[C@@H](OC(=O)[C@H](O)[C@@H](NC(=O)OC(C)(C)C)c4ccccc4)C[C@@](O)([C@@H](OC(=O)c4ccccc4)[C@H]21)C3(C)C [docetaxel, reference compound]	–	–	–	IC50 ([1]; compared with KB3 values, read-out: IC50 value of reference drug): 0.1 nM
